Test results from patent publication US5523314A, “Compounds useful as hypoglycemic agents and for treating Alzheimer's disease” (priority 1994, dated 1996).
Counter-ions that a name gives are not always drawn. Like-named read-outs stand apart in the source and are kept apart here.

Tests used:
blood glucose level = experiment: Hypoglycemic activity in obese diabetic mice (Table 1); format: in vivo, male viable yellow obese-diabetic mice; conditions: for response vs control in vivo at 50 mg/kg / response vs control in vivo at 100 mg/kg: Mus musculus, ip; for ability to lower blood glucose levels in mammals: compared to structurally similar compounds known in the art, in words
Protocol: The hypoglycemic activity of the compounds of the present invention was determined by testing the efficacy of the compounds in vivo in male viable yellow obese-diabetic mice. The test procedure is described in detail below.
Test formulations were prepared by dissolving the test compound in a saline solution containing 2% Emulphor (a polyoxyethylated vegetable oil surfactant from GAP Corp.) to provide the dose level desired. Each test formulation was administered to six viable yellow obese-diabetic mice intraperitoneally at the beginning of the experiment. Blood glucose levels were determined immediately before the first dose and at 2 and 4 hours thereafter using glucose oxidase. A mean was taken of the 6 values obtained before the first dose and at the 2 and 4 hour intervals. In Table 1, Column 1 provides the example number of the test compound, Column 2 provides the dose level of compound tested, and Columns 3 and 4 provide a measurement of the test animal's blood glucose level 2 and 4 hours after test compound administration, respectively, as a percentage of the test animal' s pre-administration blood glucose level.

Human liver cathepsin D = molecular target: T1, Human liver cathepsin D (Homo sapiens, UniProt P07339); experiment: Cathepsin D inhibition, fluorometric assay (Tables 5 and 6); format: biochemical; conditions: for IC50: 50% inhibition of cathepsin D; for inhibition at 4.15 µg/mL (stock): Compound Stock Concentration 4.15 μg/ml; for inhibition at 8.3 µg/mL (stock): Compound Stock Concentration 8.3 μg/ml
T1 construct: purchased Athens Research and Technology, Athens, Ga; host or cells: human liver
T1 sequence (P07339 169-412 limits assumed): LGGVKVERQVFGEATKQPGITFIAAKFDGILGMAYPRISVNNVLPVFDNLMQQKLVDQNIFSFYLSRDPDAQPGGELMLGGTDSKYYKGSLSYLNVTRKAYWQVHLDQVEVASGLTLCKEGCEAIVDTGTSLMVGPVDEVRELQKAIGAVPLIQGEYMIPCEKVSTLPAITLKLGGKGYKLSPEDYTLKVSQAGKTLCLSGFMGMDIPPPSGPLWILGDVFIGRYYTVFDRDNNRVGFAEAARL
T1 sequence (P07339 65-161 limits assumed): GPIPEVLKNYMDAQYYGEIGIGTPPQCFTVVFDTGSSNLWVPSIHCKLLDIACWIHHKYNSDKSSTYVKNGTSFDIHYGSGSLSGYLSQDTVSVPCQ
Protocol: Human liver cathepsin D (Athens Research and Technology, Athens, Ga.) was diluted in assay buffer, 200 mM NaOAc, pH 4.5, 150 mM NaCl to 500 ng/mL and then 100 μL of this cathepsin D solution was added to each well of a 96 well plate with the exception of control wells which received just 100 μL of assay buffer. […] Blank and enzyme control wells each received 5 μL of the DMSO vehicle.
After incubation at 37° C. for 30 minutes, cathepsin D activity was terminated by the addition of 100 μL per well of 400 mU/mL microsomal leucine aminopeptidase (EC 3.4.11.2, Sigma, St. Louis, Mo.) in 1M Tris-HCl, pH 8.0.
Following a two hour incubation at 37° C., to allow the aminopeptidase to release the fluorophore, 7-amido-4-methylcoumarin (AMC) from the products of cathepsin D cleavage, the plates were again analyzed in the fluorometer. In order to check for potential false positives, i.e., inhibitors of microsomal leucine aminopeptidase, residual aminopeptidase activity was monitored directly in each well by the addition of 20 μL/well of 2.5 mM Leu-pNA (Bachem Biosciences, Philadelphia, Pa.) in 10% DMSO.

[1] = 2 h, 50 mg/kg, intraperitoneal, 2 hrs, read-out: Percent of Initial Blood Glucose Level After 2 hrs.
[2] = 4 h, 50 mg/kg, intraperitoneal, 4 hrs, read-out: Percent of Initial Blood Glucose Level After 4 hrs.

Row | Compound | response vs control in vivo at 50 mg/kg (blood glucose level; [1]) [%] | response vs control in vivo at 50 mg/kg (blood glucose level; [2]) [%] | other results
1 | Cc1cccc(C=C2SC(=S)NC2=O)c1 [Example 33, 5-[(3-methylphenyl)methylene]-2-thioxo-4-thiazolidinone] | 91 ± 6 | 86 ± 7 | –
2 | O=C1NC(=S)SC1=Cc1ccc(Cl)c(Cl)c1 [Example 36, 5-[(3,4-dichlorophenyl)methylene]-2-thioxo-4-thiazolidinone] | 81 ± 7 | 90 ± 8 | –
3 | O=C1NC(=S)SC1=Cc1ccc(C(=O)O)cc1 [Example 37, 4-[(2-thioxo-4-thiazolidinone)methylene]benzoic acid] | 89 ± 4 | 80 ± 4 | –
4 | O=C1NC(=S)SC1=Cc1c[nH]c2ccccc12 [Example 39, 5-[(1H-indol-3-yl)methylene]-2-thioxo-4-thiazolidinone] | 83 ± 4 | 76 ± 4 | –
5 | COc1ccc(C=C2SC(=S)NC2=O)cc1O [Example 40, 5-[(3-hydroxy-4-methoxyphenyl)methylene]-2-thioxo-4-thiazolidinone] | 78 ± 5 | 72 ± 4 | –
6 | O=C1NC(=S)SC1=Cc1ccc([N+](=O)[O-])c(O)c1 [Example 43, 5-[(3-hydroxy-4-nitrophenyl)methylene]-2-thioxo-4-thiazolidinone] | 92 ± 7 | 88 ± 4 | –
7 | CC(=C1SC(=S)NC1=O)c1cccc(O)c1 [Example 44, 5-[(3-hydroxyphenyl)methylmethylene]-2-thioxo-4-thiazolidinone] | – | – | Percent of Initial Blood Glucose Level After 2 hrs. (blood glucose level; 50 mg/kg, intraperitoneal, 2 hrs): 98 ± 4%; Percent of Initial Blood Glucose Level After 4 hrs. (blood glucose level; 50 mg/kg, intraperitoneal, 4 hrs): 88 ± 5%
8 | CCOc1ccc(C=C2SC(=S)NC2=O)cc1O [Example 46, 5-[(3-hydroxy-4-ethoxyphenyl)methylene]-2-thioxo-4-thiazolidinone] | 79 ± 4 | 77 ± 5 | –
9 | CCCOc1ccc(C=C2SC(=S)NC2=O)cc1OCCC [Example 51, 5-[(3,4-dipropoxyphenyl)methylene]-2-thioxo-4-thiazolidinone] | 89 ± 7 | 85 ± 8 | –
10 | CCCCOc1ccc(C=C2SC(=S)NC2=O)cc1OC [Example 52, 5-[(3-methoxy-4-butoxyphenyl)methylene]-2-thioxo-4-thiazolidinone, sodium salt] | – | – | response vs control in vivo at 50 mg/kg (blood glucose level; 4 h, read-out: Percent of Initial Blood Glucose Level After 4 hrs., 50 mg/kg, intraperitoneal, 4 hrs): 61 ± 4%
11 | CC(C)(C)c1cc(C=C2SC(=S)N(CC(=O)O)C2=O)cc(C(C)(C)C)c1O [Example 53, 5-[[3,5-bis(1,1-dimethylethyl)-4-hydroxyphenyl]methylene]-4-oxo-2-thioxo-3-thiazolidine acetic acid] | 73 ± 4 | 55 ± 5 | response vs control in vivo at 100 mg/kg (blood glucose level; 2 h, intraperitoneal, 2 hrs, read-out: Percent of Initial Blood Glucose Level After 2 hrs.): 83 ± 9%; response vs control in vivo at 100 mg/kg (blood glucose level; 4 h, intraperitoneal, 4 hrs, read-out: Percent of Initial Blood Glucose Level After 4 hrs.): 80 ± 14%; ability to lower blood glucose levels in mammals (blood glucose level): surprising ability to lower blood glucose levels in mammals
12 | CCCCOc1ccc(CC2SC(=S)NC2=O)cc1OC (centres unmarked) [Example 54, 5-[(3-methoxy-4-butoxyphenyl)methyl]-2-thioxo-4-thiazolidinone] | 76 ± 7 | 74 ± 6 | –
13 | CCC(C)c1cc(C=C2SC(=S)N(CC(=O)O)C2=O)cc(C(C)CC)c1O (centres unmarked) [Example 59, 5-[[3,5-bis(1-methylpropyl)-4-hydroxyphenyl]methylene]-4-oxo-2-thioxo-3-thiazolidine acetic acid] | 62 ± 5 | 59 ± 9 | ability to lower blood glucose levels in mammals (blood glucose level): surprising ability to lower blood glucose levels in mammals
14 | CCOc1cc(C=C2SC(=S)NC2=O)cc(CSc2ccccc2)c1O [Example 72] | – | – | IC50 (Human liver cathepsin D): 1.7 µM; inhibition at 4.15 µg/mL (stock) (Human liver cathepsin D): 88%; inhibition at 8.3 µg/mL (stock) (Human liver cathepsin D): 96%
15 | CCOc1cc(C=C2SC(=S)N(C)C2=O)cc(CSc2ccccc2)c1O [Example 73] | – | – | IC50 (Human liver cathepsin D): 9.9 µM; inhibition at 4.15 µg/mL (stock) (Human liver cathepsin D): 69%; inhibition at 8.3 µg/mL (stock) (Human liver cathepsin D): 76%
16 | CCOc1cc(C=C2SC(=S)N(CC(=O)O)C2=O)cc(CSc2ccccc2)c1O [Example 74, 5-[[3-ethoxy-4-hydroxy-5-(methylthiophenyl)phenyl]methylene]-4-oxo-2-thioxo-3-thiazolidine acetic acid] | – | – | IC50 (Human liver cathepsin D): 5.8 µM; inhibition at 8.3 µg/mL (stock) (Human liver cathepsin D): 95%; ability to inhibit cathepsin D (Human liver cathepsin D; compared to structurally similar compounds known in the art, in words): surprising ability to inhibit cathepsin D levels
